Reference: patent publication US8044236B2, “Carboxilic acid derivatives” (Institute of Medicinal Molecular Design, Inc., priority 2006, dated 2011)
Structures can show the parent of a compound that is named as a salt.

Target: recombinant human PAI-1 (Homo sapiens, UniProt P05121)
Assay: Test Example 1: human PAI-1 inhibitory activity (tPA fluorogenic substrate, pH7.5 Tris buffer)
Type: biochemical
Parameters: purchased Molecular Innovations, Inc
Conditions: for Inhibition Rate of Human PAI-1 Activity (%): Tris buffer pH7.5
[1] = pH 7.5, read-out: Inhibition Rate of Human PAI-1 Activity (%)

Chain of recombinant human PAI-1 (P05121 24-402): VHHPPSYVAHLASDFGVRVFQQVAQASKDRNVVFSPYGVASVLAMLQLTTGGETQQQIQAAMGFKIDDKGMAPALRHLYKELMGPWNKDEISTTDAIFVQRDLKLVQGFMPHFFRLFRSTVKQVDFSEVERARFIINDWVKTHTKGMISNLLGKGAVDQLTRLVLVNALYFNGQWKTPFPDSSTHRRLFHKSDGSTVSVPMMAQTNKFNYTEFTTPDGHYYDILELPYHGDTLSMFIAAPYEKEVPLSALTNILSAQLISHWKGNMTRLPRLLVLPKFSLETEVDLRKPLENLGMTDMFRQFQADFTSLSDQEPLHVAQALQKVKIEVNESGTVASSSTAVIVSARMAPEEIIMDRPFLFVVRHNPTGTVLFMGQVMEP
Experimental: In a 96-well multiplate (black), 1.5 μl of DMSO solution of the present application compound prepared to achieve 80-fold the test concentration (=the final concentration when fluorogenic substrate is added) was diluted with 52.5 μl of pH7.5 Tris buffer. […] Furthermore, 30 μl of 800 IU/ml two-chain tPA (Activity Standard; American diagnostics, inc.) prepared by Tris buffer was added, and the mixed solution was incubated for 15 minutes at room temperature. To this, 30 μl of 400 μM fluorogenic substrate (Pyr-Gly-Arg-MCA; Peptide Institute, Inc.) for tPA prepared by Tris buffer was added and reacted for 30 minutes at room temperature.
<Composition of pH7.5 Tris Buffer)

| Compound | Inhibition Rate of Human PAI-1 Activity (%) (compound 5 μM) | Inhibition Rate of Human PAI-1 Activity (%) (compound 10 μM) | inhibition at 5 µM [1] [%] | inhibition at 10 µM [1] [%] | Inhibition Rate of Human PAI-1 Activity (%) (compound 25 μM) |
| --- | --- | --- | --- | --- | --- |
| O=C(O)Cc1cc(-c2ccc(OC(F)(F)F)cc2)ccc1OCc1ccccc1 [Compound 1, [4-benzyloxy-4′-(trifluoromethoxy)biphenyl-3-yl]acetic acid] | 18 | 31 | – | – | – |
| O=C(O)/C=C/c1cc(-c2ccc(OC(F)(F)F)cc2)ccc1OCc1ccccc1 [Compound 2, (E)-3-[4-benzyloxy-4′-(trifluoromethoxy)biphenyl-3-yl]propenoic acid] | – | – | 35 | 31 | – |
| O=C(O)CCc1cc(-c2ccc(OC(F)(F)F)cc2)ccc1OCc1ccccc1 [Compound 3, 3-[4-benzyloxy-4′-(trifluoromethoxy)biphenyl-3-yl]propanoic acid] | 35 | 68 | – | – | – |
| CC(C)(C)c1ccc(COc2ccc(-c3ccc(OC(F)(F)F)cc3)cc2/C=C/C(=O)O)cc1 [Compound 4, (E)-3-{4-[4-(tert-butyl)benzyloxy]-4′-(trifluoromethoxy)biphenyl-3-yl}propenoic acid] | 84 | 78 | – | – | – |
| CC(C)(C)c1ccc(COc2ccc(-c3ccc(OC(F)(F)F)cc3)cc2NC(=O)C(=O)O)cc1 [Compound 6, N-{4-[4-(tert-butyl)benzyloxy]-4′-(trifluoromethoxy)biphenyl-3-yl}oxamic acid sodium salt] | 83 | 94 | – | – | – |
| CC(C)(C)c1ccc(Oc2ccc(-c3ccc(OC(F)(F)F)cc3)cc2/C=C\C(=O)O)cc1 [Compound 12, (Z)-3-{4-[4-(tert-butyl)phenoxy]-4′-(trifluoromethoxy)biphenyl-3-yl}propenoic acid] | 92 | 94 | – | – | – |
| O=C(O)CCc1cc(-c2ccc(OC(F)(F)F)cc2)ccc1Oc1ccc(C(=O)O)cc1 [Compound 15, 3-[4-(4-carboxyphenoxy)-4′-(trifluoromethoxy)biphenyl-3-yl]propanoic acid] | – | 3 | – | – | – |
| CN(C(=O)C(=O)O)c1cc(-c2ccc(OC(F)(F)F)cc2)ccc1OCc1ccc(C(C)(C)C)cc1 [Compound 18, N-{4-[4-(tert-butyl)benzyloxy]-4′-(trifluoromethoxy)biphenyl-3-yl}-N-methyloxamic acid] | 37 | 67 | – | – | 97 |
| O=C(O)CCc1cc(-c2ccc(OC(F)(F)F)cc2)ccc1OCc1ccc(C(F)(F)F)cc1 [Compound 26, 3-{4′-(trifluoromethoxy)-4-[4-(trifluoromethyl)benzyloxy]biphenyl-3-yl}propanoic acid] | – | 13 | – | – | 80 |
| COc1ccccc1COc1ccc(-c2ccc(OC(F)(F)F)cc2)cc1CCC(=O)O [Compound 28, 3-[4-(2-methoxybenzyloxy)-4′-(trifluoromethoxy)biphenyl-3-yl]propanoic acid] | – | 7 | – | – | 47 |
| O=C(O)/C=C\c1cc(-c2ccc(OC(F)(F)F)cc2)ccc1OCc1ccccc1 [Compound 29, (Z)-3-[4-benzyloxy-4′-(trifluoromethoxy)biphenyl-3-yl]propenoic acid] | – | 11 | – | – | 64 |
| CC(C)(C)c1ccc(COc2ccc(-c3ccc(OC(F)(F)F)cc3)cc2/C=C\C(=O)O)cc1 [Compound 30, (Z)-3-{4-[4-(tert-butyl)benzyloxy]-4′-(trifluoromethoxy)biphenyl-3-yl}propenoic acid] | 96 | 97 | – | – | 93 |
| CC(C)(C)c1ccc(COc2ccc(-c3cccc(C(=O)O)c3)cc2CCC(=O)O)cc1 [Compound 31, 3-{4-[4-(tert-butyl)benzyloxy]-3′-carboxybiphenyl-3-yl}propanoic acid] | – | 9 | – | – | 25 |
| O=C(O)CCc1cc(-c2ccc(OC(F)(F)F)cc2)ccc1OCc1ccc(Cl)cc1Cl [Compound 32, 3-[4-(2,4-dichlorobenzyloxy)-4′-(trifluoromethoxy)biphenyl-3-yl]propanoic acid] | 5 | 29 | – | – | 92 |
| CCCCc1ccc(COc2ccc(-c3ccc(OC(F)(F)F)cc3)cc2CCC(=O)O)cc1 [Compound 35, 3-[4-(4-butylbenzyloxy)-4′-(trifluoromethoxy)biphenyl-3-yl]propanoic acid] | – | – | – | – | >99 |
| CC(C)(C)c1ccc(COc2ccc(-c3ccccc3)cc2/C=C/C(=O)O)cc1 [Compound 36, (E)-3-{4-[4-(tert-butyl)benzyloxy]biphenyl-3-yl}propenoic acid] | 21 | 49 | – | – | 89 |
| CC(C)(C)c1ccc(COc2ccc(-c3ccccc3)cc2CCC(=O)O)cc1 [Compound 37, 3-{4-[4-(tert-butyl)benzyloxy]biphenyl-3-yl}propanoic acid] | 22 | 47 | – | – | 97 |
| CC(C)(C)c1ccc(COc2ccc(-c3ccc(F)cc3)cc2/C=C/C(=O)O)cc1 [Compound 38, (E)-3-{4-[4-(tert-butyl)benzyloxy]-4′-fluorobiphenyl-3-yl}propenoic acid] | 23 | 53 | – | – | 96 |
| CC(C)(C)c1ccc(COc2ccc(-c3ccc(F)cc3)cc2CCC(=O)O)cc1 [Compound 39, 3-{4-[4-(tert-butyl)benzyloxy]-4′-fluorobiphenyl-3-yl}propanoic acid] | 24 | 53 | – | – | 99 |
| CC(C)(C)c1ccc(COc2ccc(-c3ccc(C(F)(F)F)cc3)cc2/C=C/C(=O)O)cc1 [Compound 40, (E)-3-{4-[4-(tert-butyl)benzyloxy]-4′-(trifluoromethyl)biphenyl-3-yl}propenoic acid] | 28 | 57 | – | – | 95 |
| CC(C)(C)c1ccc(COc2ccc(-c3ccc(C(F)(F)F)cc3)cc2CCC(=O)O)cc1 [Compound 41, 3-{4-[4-(tert-butyl)benzyloxy]-4′-(trifluoromethyl)biphenyl-3-yl}propanoic acid] | 23 | 60 | – | – | 99 |
